The text below walks through data of patent US11958865B1, “Leucine-rich repeat kinase 2 (LRRK2) inhibitors” (H. Lundbeck A/S, priority 2022, dated 2024).

Like-named read-outs stand apart in the source and are kept apart here.

The target of data set [1] is T1, LRRK2 WT (Homo sapiens (Human), UniProt Q5S007). Briefly: LRRK2 wild-type ADP-Glo kinase assay. Type of data set: biochemical. The note with it: read-out: LRRK2 WT ADPGlo IC50. As to the method:
LRRK2 kinase activity was measured using an ADP-Glo kinase assay from Promega Corporation. The assay is a homogeneous luminescence-based assay that measures ADP formed from a kinase reaction. The ADP is converted into ATP, which is used to generate light in a luciferase reaction. The luminescence generated correlates with kinase activity.
The LRRK2 kinase was obtained from Invitrogen (Life Technologies Corporation) and comprises residue 970 to 2527 of the full length human wild-type LRRK2 kinase. The kinase reactions were performed in a 10 μL volume in 384-well plates. The kinase reaction buffer consisted of 50 mM Tris pH 8.5, 0.01% BRIJ-35, 10 mM MgCl2, 1 mM EGTA, and 2 mM DTT.
The reaction mixture (10 μl total volume) was incubated for 3 hours at room temperature (RT, ca. 25° C.), before the reaction was terminated by addition of 10 μl ADP-Glo reagent. The mixture was further incubated for 60 minutes at RT before addition of 20 μl Kinase detection reagent from the ADP-Glo assay kit. Luminescence signal was measure on a BMG Labtech Pherastar FSX multimode microplate reader. The signal integration time was 0.5 s.
Test compound potency (Ki,app) was estimated by nonlinear regression using the tight-binding fit model in GeneData Screener (GeneData AG). In cases where the Ki,app could not be determined, the % inhibition at the highest tested concentration is reported. The tight-binding fit model is given by euquation (2). […] Ki,app is the apparent dissociation constant of the inhibitor. The IC50 can be calculated as given by equation (3). Equation (3): IC50=Ki,app+[E]/2 (3) IC50 estimates were obtained from independent experiment and the logarithmic average was calculated.
In general terms: ADP-Glo first removes unused ATP, then detects ADP through luciferase.

The nature of data set [2]: Fraction unbound in rat plasma and brain homogenate by equilibrium dialysis. Format: in vitro ADME, male Sprague-Dawley rat. The note with it: 1 μM, equilibrium dialysis 5 h at 37° C. As for the experimental part: The fraction of unbound compound in male Sprague-Dawley rat plasma (fuplasma) and brain homogenate (fubrain) were determined by equilibrium dialysis using 96-well HTD-dialysis plates with dialysis membranes (molecular weight cut off 12-14 KDa). One side of the HTD-dialysis plate was loaded with matrix (plasma or brain homogenate) and the other side with buffer (100 mM sodium phosphate buffer, pH 7.4). Test compounds were dissolved in DMSO then spiked (5 μL of 0.2 mM) into blank (995 μL) plasma or diluted brain homogenate (1:4 ratio in phosphate buffer) giving a final nominal concentration 1 μM (≤0.5% DMSO). The matrices were loaded into respective chambers and equilibrated against phosphate buffer for 5 h at 37° C. (in a humidified air incubator with 5% CO2 with shaking). Samples from both chambers (buffer and plasma or brain homogenate) were aliquoted to fresh 96-well polypropylene plates then matrix matched using an equal volume of opposite blank matrix before extraction with cold solvent (3 volumes acetonitrile) containing an appropriate bioanalytical internal standard. After centrifugation (20 min, 3200 g, 4° C.) the supernatants were diluted with appropriate volumes of water and compound concentrations were quantified by LC/MS-MS against matrix matched calibration standards. The fuplasma and fubrain were calculated according to equation 4 below.
[formula] Where [F] is the compound concentration on the buffer (receiver) side of the membrane; [T] is the compound concentration on the plasma or brain (donor) side of the membrane; D is the matrix dilution factor which is determined as D=4 for brain matrix and D=1 for plasma matrix in these assays.
(In equilibrium dialysis only unbound substance equilibrates across the membrane.)

The nature of data set [3]: Rat brain disposition after oral gavage. Type of data set: in vivo, male Sprague-Dawley rats. The note with it: male, Sprague-Dawley, oral 10 mg/kg, 0.5 h, mean ± stdev. As to the method:
Brain disposition was evaluated in male Sprague-Dawley rats (n=3, standard body weight). Briefly, test compound was formulated as a simple suspension (0.5% HPMC in water) then administered by oral gavage (10 mg/kg, 10 mL/kg or 5 mg/kg, 10 mL/kg). At the designated time point (0.5 or 1 h post dose) rats were sacrificed and terminal blood and brain samples taken. Isolated plasma and brain homogenates were extracted by standard protein precipitation in acetonitrile, containing internal standard. Diluted extracts were analyzed by liquid-chromatography coupled with tandem mass spectrometry detection (LC-MS/MS) using a bioanalytical method. Concentrations of test compound in plasma and brain were quantified against matrix matched calibration standards. The total plasma and brain concentration time data are presented in Table 4 alongside the calculated brain Kp (total brain concentration:total plasma concentration ratio).
The total brain-to-plasma partition coefficient (brain Kp) is given by the ratio of the total brain concentration and total plasma concentration of the compound according to the equation below: […]
Based on the measured rat fuplasma and fubrain values and the brain Kp the unbound brain-to-plasma partition coefficient (brain Kp,uu for each compound was calculated. The Kp,uu parameter describes the extent of brain penetration for each compound, i.e. the parameter gives a direct quantitative description of how the blood-brain barrier (BBB) handles the compounds regarding passive transport and active influx/efflux. The brain Kp,uu is given by the equation below: […]

Data set [4] in a line: Hepatic microsomal intrinsic clearance assay. Type of data set: in vitro ADME. The note with it: pooled liver microsomes, pH 7.4; liver microsomes 0.5 mg/mL; 1 μM; NADPH; 1 hour at 37° C.; LLOQ 0.36 L/h/kg. As to the method: Compounds (final concentration 1 μM, 1% organic) of the invention were incubated for 1 hour at 37° C., with shaking, in phosphate buffer (pH 7.4) containing commercially sourced pooled liver microsomes (final concentration 0.5 mg/mL). […] At designated time points (0, 5, 10, 20, 30 and 60 minutes) ice-cold acetonitrile containing internal standard (300 μL) was added to an incubation well to stop the reaction then mixed and centrifuged (3220 g for 20 minutes at 4° C.). Supernatant was diluted (1:4) with deionized water then analyzed by LC-MS/MS.
For orientation: Liver microsomes are a subcellular fraction often used to study metabolism.

Data set [5] concerns the target LRRK2 G2019S (Homo sapiens (Human), UniProt Q5S007, G2019S). In words: LRRK2 G2019S LanthaScreen TR-FRET kinase activity assay. Type of data set: biochemical. The following applies: 250 pM kinase, 1.3 mM ATP, n≥2 tests. As for the experimental part:
(§1) LRRK2 kinase activity was measured using a LanthaScreen kinase activity assay available from Invitrogen (Life Technologies Corporation). […] The phosphorylated peptide is recognized by a terbium-labelled phospho-specific anti-LRRKtide antibody (pLRRKtide antibody), obtainable from Life Technologies Corporation) and, subsequently, the phosphorylated LRRKtide can be quantified by the extent of TR-FRET between the terbium donor and fluorescein acceptor.
(§2) As discussed above, this mutation increases the kinase activity relative to the wild type. The kinase reactions were performed in a 20 μL volume in 384-well plates. The kinase reaction buffer consisted of 50 mM Tris pH 8.5, 0.01% BRIJ-35, 10 mM MgCl2, 1 mM EGTA, and 2 mM DTT.
(§3) The mixture was further incubated for 30 minutes at RT. TR-FRET was measured by excitation of the terbium-donor with 340 nm light and subsequent (delay time […]) measurement of terbium and fluorescein emission at 495 nm and 520 nm, respectively, over a time window of […]. The measurement was repeated 30 times for fluorescein and 30 times for terbium emission with a […] between repeats. TR-FRET measurements were performed on a Biotek Synergy plate. The TR-FRET signal was calculated as the emission-ratio at 520 nm over 495 nm.
(§4) Test compound potency (IC50) was estimated by nonlinear regression using the sigmoidal dose-response (variable slope) using Xlfit 4 (IDBS, Guildford, Surrey, UK, model 205). Were the IC50 could not be determined the % inhibition at the highest tested concentration is given by equation 1. Equation (1): y=(A+((B−A)/(1+((C/x)^D)))) (1)
(§5) where y is the normalized TR-TRET ratio measurement for a given concentration of test compound, x is the concentration of test compound, A is the estimated efficacy (% inhibition) at infinite compound dilution, and B is the maximal efficacy (% inhibition). C is the IC50 value and D is the Hill slope coefficient. IC50 estimates were obtained from independent experiment and the logarithmic average was calculated.

The target in data set [6] is T1, LRRK2 WT. Briefly: LRRK2 wild-type LanthaScreen TR-FRET kinase activity assay. Type of data set: biochemical. The note with it: 1 nM kinase, 1.3 mM ATP, n≥2 tests. As for the experimental part:
as §1, §2, §3, §4, §5

Setting [7] is: 0.5 nM kinase, 1.0 mM ATP, IC50=Ki,app+[E]/2, n≥2 tests.

Chain of LRRK2 G2019S (Q5S007 970-2527 G2019S): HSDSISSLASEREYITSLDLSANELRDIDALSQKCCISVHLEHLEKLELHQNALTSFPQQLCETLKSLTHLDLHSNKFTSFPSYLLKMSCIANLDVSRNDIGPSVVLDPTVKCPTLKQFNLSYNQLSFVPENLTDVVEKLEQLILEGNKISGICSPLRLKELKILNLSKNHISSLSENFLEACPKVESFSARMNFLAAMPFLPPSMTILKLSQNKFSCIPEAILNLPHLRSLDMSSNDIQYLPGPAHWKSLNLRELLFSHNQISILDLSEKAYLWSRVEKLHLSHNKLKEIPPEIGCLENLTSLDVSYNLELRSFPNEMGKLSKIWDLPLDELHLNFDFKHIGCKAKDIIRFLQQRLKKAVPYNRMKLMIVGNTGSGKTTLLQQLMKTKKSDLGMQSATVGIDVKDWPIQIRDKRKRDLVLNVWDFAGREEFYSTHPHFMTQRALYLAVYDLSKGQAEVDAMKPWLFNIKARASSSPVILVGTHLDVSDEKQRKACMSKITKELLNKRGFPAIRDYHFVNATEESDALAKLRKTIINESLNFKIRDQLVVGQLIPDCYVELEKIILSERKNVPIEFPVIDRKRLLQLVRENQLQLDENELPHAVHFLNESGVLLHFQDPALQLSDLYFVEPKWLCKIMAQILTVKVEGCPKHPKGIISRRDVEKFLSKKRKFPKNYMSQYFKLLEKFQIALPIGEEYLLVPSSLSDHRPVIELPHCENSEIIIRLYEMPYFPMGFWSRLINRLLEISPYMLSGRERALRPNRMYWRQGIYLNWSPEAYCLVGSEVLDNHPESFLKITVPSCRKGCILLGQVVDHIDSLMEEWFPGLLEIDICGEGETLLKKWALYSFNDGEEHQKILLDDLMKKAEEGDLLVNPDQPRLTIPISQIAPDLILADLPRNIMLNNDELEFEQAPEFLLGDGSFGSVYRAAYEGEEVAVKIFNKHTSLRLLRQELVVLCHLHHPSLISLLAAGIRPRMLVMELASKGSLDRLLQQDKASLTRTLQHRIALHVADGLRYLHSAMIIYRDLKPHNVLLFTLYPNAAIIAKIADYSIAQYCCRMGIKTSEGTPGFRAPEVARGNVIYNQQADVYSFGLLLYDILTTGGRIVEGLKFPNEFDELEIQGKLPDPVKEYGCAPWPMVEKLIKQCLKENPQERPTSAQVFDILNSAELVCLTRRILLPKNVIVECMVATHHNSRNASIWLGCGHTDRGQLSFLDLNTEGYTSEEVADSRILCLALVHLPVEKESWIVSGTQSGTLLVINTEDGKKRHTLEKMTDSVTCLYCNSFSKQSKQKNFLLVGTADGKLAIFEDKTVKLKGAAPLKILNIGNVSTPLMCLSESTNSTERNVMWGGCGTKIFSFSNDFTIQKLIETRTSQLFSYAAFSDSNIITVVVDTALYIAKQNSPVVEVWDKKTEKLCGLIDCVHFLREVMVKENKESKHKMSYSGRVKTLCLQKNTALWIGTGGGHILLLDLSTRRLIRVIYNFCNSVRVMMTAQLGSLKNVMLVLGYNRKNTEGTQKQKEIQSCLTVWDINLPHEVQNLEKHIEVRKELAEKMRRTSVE
T1 sequence (Q5S007 970-2527): as the sequence (Q5S007 970-2527 G2019S) above, with S1050G counted along it

What is called IC50 is the concentration at which inhibition is half-maximal. The term CLint scaled denotes the capacity of the preparation to metabolise the compound, expressed as a volume cleared per time. The low end stands for greater metabolic stability, the high end for faster metabolism. As to `CCOc1ncccc1-n1nc2c(c1C)Nc1ncc3c(Cl)nn(c3n1)CCCO2` [Example 2, 8-Chloro-2-(2-ethoxypyridin-3-yl)-3-methyl-2,4,12,13-tetrahydro-11H-5,7-(azenometheno)dipyrazolo[3,4-b:5′,1′-g][1]oxa[4,6,8]triazacycloundecine], the IC50 came to 0.28 nM in data set [1] (setting [7]), 0.35 nM in data set [5] and 0.98 nM in data set [6]. Further, the “fubrain (% free)” value in data set [2] (rat brain homogenate) is listed as 2.7 % free. Moreover, the “fuplasma (% free)” value in data set [2] (rat plasma) stood at 9.7 % free. For the same molecule, the Kp at 0.5 h in data set [3] (brain, n=3) turned out to be 1.2 ± 0.7. Besides, in data set [3] (brain, n=3), the Kp uu at 0.5 h stood at 0.35 ± 0.18. Further, the concentration at 0.5 h came out at 31 ± 11 ng/g in data set [3] (brain, n=3, read-out: Total brain concentration) and 32 ± 18 ng/mL in data set [3] (plasma, n=3, read-out: Total plasma concentration). In data set [4], this molecule gave an intrinsic clearance (CLint scaled) at 1 μM of 20.8 mL/min/kg.
Take `[2H]C([2H])([2H])c1c2c(nn1-c1cccnc1C)OCCCn1nc(Cl)c3cnc(nc31)N2` [Example 26, 8-Chloro-3-(methyl-d3)-2-(2-methylpyridin-3-yl)-2,4,12,13-tetrahydro-11H-5,7-(azenometheno)dipyrazolo[3,4-b:5′,1′-g][1]oxa[4,6,8]triazacycloundecine]: the intrinsic clearance (CLint scaled) at 1 μM in data set [4] is 11.7 mL/min/kg.
`CCc1ncccc1-n1nc2c(c1C)Nc1ncc3c(Cl)nn(c3n1)CCCO2` [Example 4, 8-Chloro-2-(2-ethylpyridin-3-yl)-3-methyl-2,4,12,13-tetrahydro-11H-5,7-(azenometheno)dipyrazolo[3,4-b:5′,1′-g][1]oxa[4,6,8]triazacycloundecine]: the IC50 in data set [1] (setting [7]) worked out at 0.82 nM; in data set [5] it was 1.8 nM; in data set [6], 7 nM. In addition, the intrinsic clearance (CLint scaled) at 1 μM in data set [4] is 23.8 mL/min/kg.
On the same counts, the results for `COc1nnccc1-n1nc2c(c1C)Nc1ncc3c(Cl)nn(c3n1)CCCO2` [Example 21, 8-Chloro-2-(3-methoxypyridazin-4-yl)-3-methyl-2,4,12,13-tetrahydro-11H-5,7-(azenometheno)dipyrazolo[3,4-b:5′,1′-g][1]oxa[4,6,8]triazacycloundecine] are 0.45 nM, 0.24 nM, 0.94 nM and 25.7 mL/min/kg.
In data set [4], `[2H]C([2H])([2H])c1c2c(nn1-c1cc(C)cnc1C)OCCCn1nc(Cl)c3cnc(nc31)N2` [Example 27, 8-Chloro-2-(2,5-dimethylpyridin-3-yl)-3-(methyl-d3)-2,4,12,13-tetrahydro-11H-5,7-(azenometheno)dipyrazolo[3,4-b:5′,1′-g][1]oxa[4,6,8]triazacycloundecine] gave a CLint scaled at 1 μM of 8.17 mL/min/kg.
In the case of `[2H]C([2H])([2H])c1c2c(nn1-c1cccnc1OC)OCCCn1nc(Cl)c3cnc(nc31)N2` [Example 28, 8-Chloro-2-(2-methoxypyridin-3-yl)-3-(methyl-d3)-2,4,12,13-tetrahydro-11H-5,7-(azenometheno)dipyrazolo[3,4-b:5′,1′-g][1]oxa[4,6,8]triazacycloundecine], the IC50 in data set [1] was 0.63 nM; in data set [5], 0.23 nM; in data set [6] it was 0.76 nM. This molecule showed a CLint scaled at 1 μM in data set [4] of 10.2 mL/min/kg.
Regarding `[2H]C([2H])([2H])c1c2c(nn1-c1cc(F)cnc1C)OCCCn1nc(Cl)c3cnc(nc31)N2` [Example 30, 8-Chloro-2-(5-fluoro-2-methylpyridin-3-yl)-3-(methyl-d3)-2,4,12,13-tetrahydro-11H-5,7-(azenometheno)dipyrazolo[3,4-b:5′,1′-g][1]oxa[4,6,8]triazacycloundecine], the CLint scaled at 1 μM in data set [4] was 14 mL/min/kg.
For the molecule `Cc1c2c(nn1-c1cccnc1OC(F)(F)F)OCCCn1nc(Cl)c3cnc(nc31)N2` [Example 20, 8-Chloro-3-methyl-2-(2-(trifluoromethoxy)pyridin-3-yl)-2,4,12,13-tetrahydro-11H-5,7-(azenometheno)dipyrazolo[3,4-b:5′,1′-g][1]oxa[4,6,8]triazacycloundecine], the IC50 is 0.48 nM in data set [1] (setting [7]), 1.1 nM in data set [5] and 3.4 nM in data set [6]. In addition, in data set [4], the CLint scaled at 1 μM is 18.3 mL/min/kg.
On the same counts, the results for `Cc1c2c(nn1-c1cccnc1C(F)(F)F)OCCCn1nc(Cl)c3cnc(nc31)N2` [Example 17, 8-Chloro-3-methyl-2-(2-(trifluoromethyl)pyridin-3-yl)-2,4,12,13-tetrahydro-11H-5,7-(azenometheno)dipyrazolo[3,4-b:5′,1′-g][1]oxa[4,6,8]triazacycloundecine] are 3.1 nM, 5.5 nM, 20 nM and 15.3 mL/min/kg.
